# ChEMBL document CHEMBL1921746, “Chemical constituents of the rhizomes of Hedychium coronarium and their inhibitory effect on the pro-inflammatory cytokines production LPS-stimulated in bone marrow-derived dendritic cells” (Bioorg Med Chem Lett, 2011)
# Calls of active or inactive are those of the source. The rule behind the calls is not given here.
# Legend:
# BMDC [1] = assay: Antiinflammatory activity in C57BL/6 mouse BMDC assessed as inhibition of LPS-stimulated TNF-alpha production up to 50 uM preincubated for 1 hr before LPS-stimulation measured after 16 hrs by ELISA; assay type: functional
# BMDC [2] = assay: Antiinflammatory activity in C57BL/6 mouse BMDC assessed as inhibition of LPS-stimulated IL-12p40 production up to 50 uM preincubated for 1 hr before LPS-stimulation measured after 16 hrs by ELISA; assay type: functional
# BMDC [3] = assay: Antiinflammatory activity in C57BL/6 mouse BMDC assessed as inhibition of LPS-stimulated IL-6 production up to 50 uM preincubated for 1 hr before LPS-stimulation measured after 16 hrs by ELISA; assay type: functional
# [4] = Cytotoxicity against C57BL/6 mouse BMDC assessed as reduction of cell viability by MTT assay
# [5] = Antiinflammatory activity in C57BL/6 mouse BMDC assessed as inhibition of LPS-stimulated TNF-alpha production preincubated for 1 hr before LPS-stimulation measured after 16 hrs by ELISA; assay type: functional
# [6] = Antiinflammatory activity in C57BL/6 mouse BMDC assessed as inhibition of LPS-stimulated IL-6 production preincubated for 1 hr before LPS-stimulation measured after 16 hrs by ELISA; assay type: functional
# [7] = Antiinflammatory activity in C57BL/6 mouse BMDC assessed as inhibition of LPS-stimulated IL-12p40 production preincubated for 1 hr before LPS-stimulation measured after 16 hrs by ELISA; assay type: functional
Compound,inhibition (BMDC [1]),inhibition (BMDC [2]),inhibition (BMDC [3]),Activity [4],IC50 [5] [µM],IC50 [6] [µM],IC50 [7] [µM]
C=C[C@@](C)(O)CC/C=C(\C)CCC=C(C)C,inactive,inactive,inactive,,,,
C=C1CC[C@H]2C(C)(C)CCC[C@]2(C)[C@H]1C/C=C1/CC(OC)OC1=O (some centres not stated) [CORONARIN D METHYL ETHER],,,,Toxic,,,
CC[C@H](CC[C@@H](C)[C@H]1CC[C@H]2[C@@H]3CC=C4C[C@@H](O)CC[C@]4(C)[C@H]3CC[C@]12C)C(C)C,inactive,inactive,inactive,,,,
C=C1CC[C@H]2C(C)(C)CCC[C@]2(C)[C@H]1C/C=C1/CC(O)OC1=O (some centres not stated) [CORONARIN D],,,,,41.7,,
C[S+]([O-])c1ccc(-c2nc(-c3ccc(F)cc3)c(-c3ccncc3)[nH]2)cc1 (configuration not stated) [SB-203580],,,,,7.24,3.53,5.02
CC1(C)CCC[C@]2(C)[C@H]3C/C=C(/C=O)CC(O)CC3=CC(=O)[C@@H]12 (some centres not stated) [CORONARIN H],,,,,26.8,8.93,8.02
C=C1[C@@H](O)C[C@H]2C(C)(C)[C@@H](O)CC[C@]2(C)[C@H]1C/C=C1/COCC1O (some centres not stated) [CORONARIN I],,,,Toxic,,,
C=C1CC[C@H]2C(C)(C)CCC[C@]2(C)[C@H]1CCC1=CC(OC)OC1=O (some centres not stated) [CORONARIN G],,,,,12.6,7.57,6.6
CC[C@H](CC[C@@H](C)[C@H]1CC[C@H]2[C@@H]3CC=C4C[C@@H](O[C@@H]5O[C@H](CO)[C@@H](O)[C@H](O)[C@H]5O)CC[C@]4(C)[C@H]3CC[C@]12C)C(C)C,inactive,inactive,inactive,,,,
CC[C@H](/C=C/[C@@H](C)[C@H]1CC[C@H]2[C@@H]3CC=C4C[C@@H](O)CC[C@]4(C)[C@H]3CC[C@]12C)C(C)C,inactive,inactive,inactive,,,,
C=C1[C@@H](O)C[C@H]2C(C)(C)CCC[C@]2(C)[C@H]1/C=C/C1=CC(=O)OC1O (some centres not stated) [HEDYFORRESTIN C],,,,,10.4,3.38,0.19
